Test results: patent US4887995A, “Method of treating sickle cell anemia” (University of Pittsburgh, priority 1985, dated 1989)

How the values were obtained:
sickle hemoglobin (HbS) = assay: solubility assay: ability of a compound to increase solubility of sickle hemoglobin; format: biochemical; settings: low concentrations (5 mM.); the higher the ratio the higher the activity; compared with DiClBz and p-BrBz
Excerpt: In comparative tests which we reported in J. of Med. Chem., 1984, 27, 103-105, which is incorporated herein by reference, ethacrynic acid was compared with active agents (1) [(3,4-dichlorobenzyl)oxy]acetic acid (DiClBz2) and (2) [(p-bromobenzyl)oxy]acetic acid (p-BrBz). The solubility assay measures the ability of a compound to increase solubility of sickle hemoglobin (HbS). […] The higher the ratio the higher the activity of the compound.

erythrocyte membranes = assay: transport across erythrocyte membranes; format: in vitro ADME
HbS = assay: chromatographic separation for covalent binding to HbS

C=C(CC)C(=O)c1ccc(OCC(=O)O)c(Cl)c1Cl [ethacrynic acid]
solubility ratio (sickle hemoglobin (HbS)): higher solubility ratio than DiClBz and p-BrBz | ability to cross the red blood cell membrane and react with hemoglobin (erythrocyte membranes): confirmed the ability of ethacrynic acid to cross the red blood cell membrane and react with hemoglobin | covalent binding between HbS and compound (HbS): desired tight covalent binding between the HbS and ethacrynic acid had occurred
